The record followed here is patent publication US10544120B2, “Biaryl kinase inhibitors” (BRISTOL-MYERS SQUIBB COMPANY, priority 2015, dated 2020).

The target in the assay is GST-Xa-hAAK1 (Homo sapiens (Human), UniProt Q2M2I8). The assay is described as follows: AAK1 Kinase Assay. It is filed as biochemical. As to conditions: bacterially expressed GST-Xa-hAAK1 3.5 nM; ATP 22 μM; fluoresceinated peptide 1.5 μM; 3 hours at room temperature; Caliper LabChip 3000. How it is done:
The assays were performed in U-bottom 384-well plates. […] The reactions were initiated by the combination of bacterially expressed, GST-Xa-hAAK1 with substrates and test compounds. The reactions were incubated at room temperature for 3 hours and terminated by adding 60 μl of 35 mM EDTA buffer to each sample. The reactions were analyzed on the Caliper LabChip 3000 (Caliper, Hopkinton, Mass.) by electrophoretic separation of the fluorescent substrate and phosphorylated product. […] Compounds were dissolved at 10 mM in dimethylsulfoxide (DMSO) and evaluated at eleven concentrations. IC50 values were derived by non-linear regression analysis.

Chain of GST-Xa-hAAK1 (Q2M2I8 whole entry): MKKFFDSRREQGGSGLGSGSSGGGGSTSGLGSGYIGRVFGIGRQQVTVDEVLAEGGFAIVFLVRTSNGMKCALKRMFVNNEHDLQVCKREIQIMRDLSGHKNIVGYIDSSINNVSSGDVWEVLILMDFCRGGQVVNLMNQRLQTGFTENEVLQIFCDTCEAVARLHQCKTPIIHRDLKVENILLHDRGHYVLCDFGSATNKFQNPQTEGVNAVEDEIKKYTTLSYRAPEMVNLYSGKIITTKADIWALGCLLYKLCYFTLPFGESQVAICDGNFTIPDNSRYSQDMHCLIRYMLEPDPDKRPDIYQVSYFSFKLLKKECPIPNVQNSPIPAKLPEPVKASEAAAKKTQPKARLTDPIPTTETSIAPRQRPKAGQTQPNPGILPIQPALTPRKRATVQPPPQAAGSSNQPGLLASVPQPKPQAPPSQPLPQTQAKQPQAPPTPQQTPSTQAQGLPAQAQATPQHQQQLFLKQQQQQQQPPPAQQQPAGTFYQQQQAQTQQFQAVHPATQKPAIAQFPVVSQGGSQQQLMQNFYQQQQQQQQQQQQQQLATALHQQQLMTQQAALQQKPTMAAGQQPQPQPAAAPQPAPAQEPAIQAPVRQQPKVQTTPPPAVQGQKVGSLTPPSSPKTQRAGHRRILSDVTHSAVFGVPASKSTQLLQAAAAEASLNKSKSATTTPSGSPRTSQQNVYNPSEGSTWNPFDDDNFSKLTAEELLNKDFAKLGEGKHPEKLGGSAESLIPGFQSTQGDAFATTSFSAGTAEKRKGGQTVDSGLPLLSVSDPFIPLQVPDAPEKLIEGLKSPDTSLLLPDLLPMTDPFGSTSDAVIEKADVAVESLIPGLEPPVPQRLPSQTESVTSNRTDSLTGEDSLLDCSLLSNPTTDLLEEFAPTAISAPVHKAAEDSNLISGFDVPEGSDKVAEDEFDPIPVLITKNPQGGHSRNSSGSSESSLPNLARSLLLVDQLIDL

For the compound `COc1cc(-c2ccc(OC[C@@](C)(N)CC(C)C)c(C)c2)ccn1` [Example 386, (S)-1-(4-(2-methoxypyridin-4-yl)-2-methylphenoxy)-2,4-dimethylpentan-2-amine], the IC50 (commonly the concentration that inhibits the measured activity by half) came to 13 nM.
The same measure for `Cc1cc(-c2ccc(OC[C@@](C)(N)CC(C)C)c(CF)n2)ncn1` [Example 387, (S)-1-((2-(fluoromethyl)-6-(6-methylpyrimidin-4-yl)pyridin-3-yl)oxy)-2,4-dimethylpentan-2-amine]: 1010 nM.
The same measure for `COC(=O)Nc1nccc(-c2ccc(OC[C@@](C)(N)CC(C)C)c(CF)n2)n1` [Example 388, (S)-methyl (4-(5-((2-amino-2,4-dimethylpentyl)oxy)-6-(fluoromethyl)pyridin-2-yl)pyrimidin-2-yl)carbamate]: 4.7 nM; for `CC(C)CC(=O)Nc1cc(-c2ccc(OC[C@@](C)(N)CC(C)C)c(C(F)(F)F)c2)ccn1` [Example 395, (S)-N-(4-(4-((2-amino-2,4-dimethylpentyl)oxy)-3-(trifluoromethyl)phenyl)pyridin-2-yl)-3-methylbutanamide]: 0.7 nM.
With `CCC(C)CC(=O)Nc1cc(-c2ccc(OC[C@@](C)(N)CC(C)C)c(C(F)(F)F)c2)ccn1` (stereo partly drawn) [Example 396, N-(4-(4-(((S)-2-amino-2,4-dimethylpentyl)oxy)-3-(trifluoromethyl)phenyl)pyridin-2-yl)-3-methylpentanamide], the IC50 is 1.6 nM.
The same measure for `CC(C)CCC(=O)Nc1cc(-c2ccc(OC[C@@](C)(N)CC(C)C)c(C(F)(F)F)c2)ccn1` [Example 397, (S)-N-(4-(4-((2-amino-2,4-dimethylpentyl)oxy)-3-(trifluoromethyl)phenyl)pyridin-2-yl)-4-methylpentanamide]: 0.7 nM; for `Cc1nc(-c2ccnc(N)c2)ccc1OC[C@@](C)(N)CC(C)C` [Example 422, (S)-5-((2-amino-2,4-dimethylpentyl)oxy)-6-methyl-[2,4′-bipyridin]-2′-amine]: 3.5 nM.
Under `Cc1cc(-c2cc(N)ncn2)ccc1OC[C@@](C)(N)CC(C)C` [Example 431, (S)-6-(4-((2-amino-2,4-dimethylpentyl)oxy)-3-methylphenyl)pyrimidin-4-amine] stands 5.4 nM.
The same measure for `COC(=O)Nc1cc(-c2ccc(OC[C@@](C)(N)CC(C)C)c(C(F)(F)F)c2)ncn1` [Example 432, (S)-methyl (6-(4-((2-amino-2,4-dimethylpentyl)oxy)-3-(trifluoromethyl)phenyl)pyrimidin-4-yl)carbamate]: 0.7 nM; for `COC(=O)Nc1cc(-c2ccc(OC[C@@](C)(N)CC(C)C)c(C)c2)ncn1` [Example 433, (S)-methyl (6-(4-((2-amino-2,4-dimethylpentyl)oxy)-3-methylphenyl)pyrimidin-4-yl)carbamate]: 1.8 nM.
On to `Cc1cc(-c2cc(F)c(OC[C@@](C)(N)CC(C)C)cc2F)ncn1` [Example 435, (S)-1-(2,5-difluoro-4-(6-methylpyrimidin-4-yl)phenoxy)-2,4-dimethylpentan-2-amine], for which the IC50 was found to be 63 nM.
Consider `Cc1cc(-c2ccc(OC[C@@](C)(N)CC(C)C)c(C#N)c2)ncn1` [Example 436, (S)-2-((2-amino-2,4-dimethylpentyl)oxy)-5-(6-methylpyrimidin-4-yl)benzonitrile], for which the IC50 was 6.2 nM.
Under `COC(=O)Nc1cc(-c2cnc(OC[C@@](C)(N)CC(C)C)c(Cl)c2)ncn1` [Example 437, (S)-methyl (6-(6-((2-amino-2,4-dimethylpentyl)oxy)-5-chloropyridin-3-yl)pyrimidin-4-yl)carbamate] stands 2.2 nM; under `COC(=O)Nc1cc(-c2cnc(OC[C@@](C)(N)CC(C)C)c(C)c2)ncn1` [Example 438, (S)-methyl (6-(6-((2-amino-2,4-dimethylpentyl)oxy)-5-methylpyridin-3-yl)pyrimidin-4-yl)carbamate], 6.5 nM.
Under `COc1cc(-c2ccc(OC[C@@](C)(N)CC(C)C)c(C#N)c2)ncn1` [Example 439, (S)-2-((2-amino-2,4-dimethylpentyl)oxy)-5-(6-methoxypyrimidin-4-yl)benzonitrile] stands 128 nM; under `COc1cc(-c2ccc(OC[C@@](C)(N)CC(C)C)c(C(F)(F)F)c2)ncn1` [Example 440, (S)-1-(4-(6-methoxypyrimidin-4-yl)-2-(trifluoromethyl)phenoxy)-2,4-dimethylpentan-2-amine], 308 nM.
Under `CC(C)C[C@](C)(N)COc1ccc(-c2cc(Cl)ncn2)cc1C#N` [Example 441, (S)-2-((2-amino-2,4-dimethylpentyl)oxy)-5-(6-chloropyrimidin-4-yl)benzonitrile] stands 15 nM.
`CC(C)C[C@](C)(N)COc1ccc(-c2cc(Cl)ncn2)cc1C(F)(F)F` [Example 442, (S)-1-(4-(6-chloropyrimidin-4-yl)-2-(trifluoromethyl)phenoxy)-2,4-dimethylpentan-2-amine]: the IC50 was 19 nM.
Under `CCc1cc(-c2ccc(OC[C@@](C)(N)CC(C)C)c(C#N)c2)ncn1` [Example 443, (S)-2-((2-amino-2,4-dimethylpentyl)oxy)-5-(6-ethylpyrimidin-4-yl)benzonitrile] stands 46 nM; under `CCc1cc(-c2ccc(OC[C@@](C)(N)CC(C)C)c(C(F)(F)F)c2)ncn1` [Example 444, (S)-1-(4-(6-ethylpyrimidin-4-yl)-2-(trifluoromethyl)phenoxy)-2,4-dimethylpentan-2-amine], 153 nM; under `Cc1cc(-c2cnc(OC[C@@](C)(N)CC(C)C)c(Cl)c2)ncn1` [Example 445, (S)-1-((3-chloro-5-(6-methylpyrimidin-4-yl)pyridin-2-yl)oxy)-2,4-dimethylpentan-2-amine], 62 nM.
Under `Cc1cc(-c2cnc(OC[C@@](C)(N)CC(C)C)c(C)c2)ncn1` [Example 446, (S)-2,4-dimethyl-1-((3-methyl-5-(6-methylpyrimidin-4-yl)pyridin-2-yl)oxy)pentan-2-amine] stands 317 nM; under `CCc1cc(-c2cnc(OC[C@@](C)(N)CC(C)C)c(C)c2)ncn1` [Example 447, (S)-1-((5-(6-ethylpyrimidin-4-yl)-3-methylpyridin-2-yl)oxy)-2,4-dimethylpentan-2-amine], 304 nM; under `Cc1cc(-c2cc(C)c(OC[C@@](C)(N)CC(C)C)cn2)ncn1` [Example 450, (S)-2,4-dimethyl-1-((4-methyl-6-(6-methylpyrimidin-4-yl)pyridin-3-yl)oxy)pentan-2-amine], 126 nM.
Turning to `Cc1nc(-c2ccnc(Cl)n2)ccc1OC[C@@](C)(N)CC(C)C` [Example 451, (S)-1-((6-(2-chloropyrimidin-4-yl)-2-methylpyridin-3-yl)oxy)-2,4-dimethylpentan-2-amine], the IC50 was found to be 2.7 nM.
The same measure for `Cc1nccc(-c2ccc(OC[C@@](C)(N)CC(C)C)c(C(F)(F)F)n2)n1` [Example 454, (S)-2,4-dimethyl-1-((6-(2-methylpyrimidin-4-yl)-2-(trifluoromethyl)pyridin-3-yl)oxy)pentan-2-amine]: 2.4 nM; for `Cc1nccc(-c2ccc(OC[C@@](C)(N)CC(C)C)c(C#N)c2)n1` [Example 458, (S)-2-(2-amino-2,4-dimethylpentyloxy)-5-(2-methylpyrimidin-4-yl) benzonitrile]: 1.5 nM; for `Cc1nccc(-c2ccc(OC[C@@](C)(N)CC(C)C)c(F)c2)n1` [Example 462, (S)-1-(2-fluoro-4-(2-methylpyrimidin-4-yl)phenoxy)-2,4-dimethylpentan-2-amine]: 21 nM.
Under `CC(C)C[C@](C)(N)COc1ccc(-c2ccnc(C(F)(F)F)n2)cc1Cl` [Example 465, (S)-1-(2-chloro-4-(2-(trifluoromethyl)pyrimidin-4-yl)phenoxy)-2,4-dimethylpentan-2-amine] stands 3.6 nM.
Under `Cc1nccc(-c2ccc(OC[C@@](C)(N)CC(C)C)c(Cl)c2)n1` [Example 469, (S)-1-(2-chloro-4-(2-methylpyrimidin-4-yl)phenoxy)-2,4-dimethylpentan-2-amine] stands 1.5 nM.
`CC(C)C[C@](C)(N)COc1ccc(-c2ccnc(C(F)(F)F)n2)cc1C#N` [Example 474, (S)-2-(2-amino-2,4-dimethylpentyloxy)-5-(2-(trifluoromethyl)pyrimidin-4-yl)benzonitrile]: the IC50 is 6.6 nM.
With `Cc1cc(-c2ccc(OC[C@@](C)(N)CC(C)C)c(C(F)(F)F)c2)nc(C)n1` [Example 479, (S)-1-(4-(2,6-dimethylpyrimidin-4-yl)-2-(trifluoromethyl)phenoxy)-2,4-dimethylpentan-2-amine], the IC50 stood at 533 nM.
The same measure for `CC(C)C[C@](C)(N)COc1ccc(-c2ccnc(C(C)C)n2)cc1Cl` [Example 480, (S)-1-(2-chloro-4-(2-isopropylpyrimidin-4-yl)phenoxy)-2,4-dimethylpentan-2-amine]: 18 nM; for `Cc1nccc(-c2ccc(OC[C@@](C)(N)CC(C)C)c(C)n2)n1` [Example 484, (S)-2,4-dimethyl-1-(2-methyl-6-(2-methylpyrimidin-4-yl)pyridin-3-yloxy)pentan-2-amine]: 3.2 nM; for `Cc1nccc(-c2cc(C#N)c(OC[C@@](C)(N)CC(C)C)cn2)n1` [Example 487, (S)-5-(2-amino-2,4-dimethylpentyloxy)-2-(2-methylpyrimidin-4-yl)isonicotinonitrile]: 1290 nM.
The same measure for `Cc1nccc(-c2ccc(OCC(N)(CC(C)C)C(F)(F)F)c(C)n2)n1` (stereo not drawn) [Example 491, 1,1,1-trifluoro-4-methyl-2-(((2-methyl-6-(2-methylpyrimidin-4-yl)pyridin-3-yl)oxy)methyl)pentan-2-amine]: 789 nM.
